Measurements reported in patent publication US8258158B2 (Hoffmann-La Roche Inc., priority 2009, dated 2012).

Biological target: T1, human HSL (Homo sapiens, UniProt Q05469)
T1 construct: overlapping PCR to generate a full length human HSL ORF with a 3′-His6 tag; His6 (C); made in house; host or cells: High 5 insect cells (baculovirus, pFast-BAC)
T1 sequence (Q05469 1-1076): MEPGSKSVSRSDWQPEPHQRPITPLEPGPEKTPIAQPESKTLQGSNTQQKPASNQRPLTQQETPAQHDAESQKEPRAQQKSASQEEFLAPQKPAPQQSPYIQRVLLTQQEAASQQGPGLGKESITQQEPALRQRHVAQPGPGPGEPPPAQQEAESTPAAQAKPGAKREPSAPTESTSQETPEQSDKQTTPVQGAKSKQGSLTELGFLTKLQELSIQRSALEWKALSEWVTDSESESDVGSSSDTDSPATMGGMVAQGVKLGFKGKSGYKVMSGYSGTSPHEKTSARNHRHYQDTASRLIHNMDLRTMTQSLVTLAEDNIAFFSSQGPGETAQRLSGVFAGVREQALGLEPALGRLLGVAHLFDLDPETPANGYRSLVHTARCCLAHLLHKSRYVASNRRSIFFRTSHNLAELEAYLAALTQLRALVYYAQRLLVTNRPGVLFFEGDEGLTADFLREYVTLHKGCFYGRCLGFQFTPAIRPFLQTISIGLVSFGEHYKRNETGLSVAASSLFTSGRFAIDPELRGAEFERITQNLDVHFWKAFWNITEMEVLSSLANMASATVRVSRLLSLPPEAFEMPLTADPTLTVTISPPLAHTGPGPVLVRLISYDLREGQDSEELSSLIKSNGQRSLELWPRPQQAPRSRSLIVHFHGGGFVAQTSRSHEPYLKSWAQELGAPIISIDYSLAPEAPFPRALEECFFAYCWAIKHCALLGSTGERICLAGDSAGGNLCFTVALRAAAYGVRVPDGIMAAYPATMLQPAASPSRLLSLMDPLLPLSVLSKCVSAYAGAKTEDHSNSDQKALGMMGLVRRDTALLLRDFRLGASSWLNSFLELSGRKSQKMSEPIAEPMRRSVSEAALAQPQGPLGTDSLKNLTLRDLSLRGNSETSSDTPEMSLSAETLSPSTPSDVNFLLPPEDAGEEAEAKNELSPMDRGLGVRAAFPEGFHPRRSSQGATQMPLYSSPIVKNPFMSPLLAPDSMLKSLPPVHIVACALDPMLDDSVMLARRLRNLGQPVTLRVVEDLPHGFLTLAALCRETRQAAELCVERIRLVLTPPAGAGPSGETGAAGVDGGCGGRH
Assay: Human hormone-sensitive lipase (HSL) enzyme inhibition assay (colorimetric, DMPT substrate)
Type: biochemical
Settings: human full length HSL-His6; 2,3-dimercapto-1-propanol tributyrate substrate; 37° C., 20 minutes; read-out: HSL hum IC50
Protocol: Production of Human Full Length Hormone Sensitive Lipase-His^6:
1) Cloning: cDNA was prepared from commercial human brain polyA+ RNA and used as a template in overlapping PCR to generate a full length human HSL ORF with a 3′-His6 tag. This full length insert was cloned into the pFast-BAC vector and the DNA-sequence of several single clones was verified. DNA from a correct full length clone with the 3′His6 tag was used to transform the E. coli strain DH10BAC. Resulting bacmid DNA was used to generate a titered baculovirus stock for protein generation. The sequence of the encoded HSL conforms to Swissprot entry Q05469, with the additional C-terminal His6-tag.
2) Protein purification: Culture: 5.5 L, High 5 cells expressing human full length HSL-His^6, 48 hr., containing 25 μM E-64. Cell count: […], 90% viable. Cells were thawed. On ice, cells were suspended in Base Buffer containing 10% glycerol, 25 mM Tris-Cl, 300 mM NaCl, 10 mM imidazole, 10 mM 2-mercaptoethanol, 2 μg pepstatin/ml, 2 μg leupeptin/ml, 2 μg antipain/ml, pH 8.0 at 4° C. in a final volume of 475 ml with 3.75×10^7 cells/ml. […] was done at 3×30 sec., Lubrol PX was added to 0.2% final concentration followed by stirring for 15 min. at 4° C. and centrifugation at 25 k×g, 60 min., 4° C. Soluble proteins were mixed with 60 ml of pre-washed and equilibrated Ni-NTA Agarose (Qiagen 30210) followed by tumbling end-over-end, 45 min., 4° C., centrifugation 1000 rpm 5 min and letting resin settle 5 min. Supernatant was removed, the resin washed in the centrifuge vessel using 5 volumes of Base Buffer containing 0.2% Lubrol PX. Centrifugation was done again, then the supernatant discarded. The resin was poured onto a 0.8 μm membrane in a disposable filter unit (Nalge 450-0080), and washed with 5 volumes of Base Buffer containing 0.2% Lubrol PX. It was then washed with 30 volumes of Base Buffer containing 60 mM imidazole pH 7.5 at 4° C. The protein was eluated with 5 volumes of 25 mM Tris-Cl, 300 mM NaCl, 200 mM imidazole, 10 mM 2-mercaptoethanol, pH 7.5 at 4° C. by tumbling resin with buffer end-over-end, 30 min., 4° C. The resin was captured on a 0.2 μm membrane disposable filter unit (Millipore SCGP U02 RE) and the eluate collected in the reservoir. The eluate was concentrated using a 30 k MWCO centrifugal filter device (Sartorius Vivascience Vivacell 100, VC1022), to 20 ml. It was then dialyzed overnight at 4° C., two times against 2 L of 10% glycerol, 25 mM Tris-Cl, 300 mM NaCl, 0.2 mM EDTA, 0.2 mM DTT, pH 7.5 at 4° C. The protein was filtered using a 0.22 μm disposable filter unit (Millipore SCGP00525). The protein concentration was calculated from absorbance at 280 nm, using 280=0.67 cm-1 mg-1. Yield was 235 mg, total. The protein was stored at −80° C.
Human Hormone-Sensitive Lipase (HSL) Enzyme Inhibition Assay:
HSL enzyme activity was measured by a colorimetric assay using 2,3-dimercapto-1-propanol tributyrate (Aldrich, St. Louis, Mo.) as a substrate. Typically, 1.5 mM 2,3-dimercapto-1-propanol tributyrate (DMPT) in 100 mM MOPS, pH 7.2, 0.2 mg/ml fatty acid-free BSA was prepared by sonication at 4° C. to homogenous suspension. Test compounds (2 mM stock in DMSO) were diluted 3 fold in series in DMSO. Compound solutions were diluted 24 fold in 1.5 mM DMPT containing solution and 18 ul per well was added to 384-well microplates (Corning Costar). Twelve microliters per well of human HSL (15 ug/ml) was added and the reaction mixture was incubated at 37° C. for 20 minutes. Six microliters of 12 mM dithio-bis-(2-nitrobenzoic acid) (DTNB) in DMSO plus 1.2% SDS and 0.6% Triton X-100 were added and the mixture was incubated at room temperature for 15 minutes. Product production was monitored by reading absorbance at 405 nm on an Envision Reader (PerkinElmer Life and Analytical Sciences, Shelton, Conn.).

Compound	IC50
Cc1ccc(S(=O)(=O)N2CCC(C(=O)Nc3ccc(OC(C)C)cc3)CC2)cc1 [Example 7, 1-(Toluene-4-sulfonyl)-piperidine-4-carboxylic acid (4-isopropoxy-phenyl)-amide]	70 nM
Cc1ccc(S(=O)(=O)N2CCC(F)(C(=O)Nc3ccc(C(C)C)cc3)CC2)cc1 [Example 41, 4-Fluoro-1-(toluene-4-sulfonyl)-piperidine-4-carboxylic acid (4-isopropyl-phenyl)-amide]	320 nM
Cc1ccc(S(=O)(=O)N2CCC(C(=O)Nc3ccc(OC(C)C)cc3F)CC2)cc1 [Example 15, 1-(Toluene-4-sulfonyl)-piperidine-4-carboxylic acid (2-fluoro-4-isopropoxy-phenyl)-amide]	470 nM
Cc1ccc(S(=O)(=O)N2CCC(C(=O)Nc3ccc(OCC(F)(F)F)cc3)CC2)cc1 [Example 14, 1-(Toluene-4-sulfonyl)-piperidine-4-carboxylic acid [4-(2,2,2-trifluoro-ethoxy)-phenyl]-amide]	160 nM
Cc1ccc(S(=O)(=O)N2CC[C@H](C(=O)Nc3ccc(OC(F)(F)F)cc3)C[C@H]2CO)cc1 (racemic) [Example 42, (2S,4S)-2-Hydroxymethyl-1-(toluene-4-sulfonyl)-piperidine-4-carboxylic acid (4-trifluoromethoxy-phenyl)-amide and (2R,4R)-2-Hydroxymethyl-1-(toluene-4-sulfonyl)-piperidine-4-carboxylic acid (4-trifluoromethoxy-phenyl)-amide]	40 nM
CCn1nc(NC(=O)C2CCN(S(=O)(=O)c3ccccc3)CC2)cc1C(F)(F)F [Example 35, 1-Benzenesulfonyl-piperidine-4-carboxylic acid (1-ethyl-5-trifluoromethyl-1H-pyrazol-3-yl)-amide]	1130 nM
CC(C)(C)CC(=O)N1CCC(C(=O)Nc2ccc(OC(F)(F)F)cc2)CC1 [Example 21, 1-(3,3-Dimethyl-butyryl)-piperidine-4-carboxylic acid (4-trifluoromethoxy-phenyl)-amide]	200 nM
COCCCC1(C(=O)Nc2ccc(OC(C)C)cc2)CCN(S(=O)(=O)c2ccccc2)CC1 [Example 12, 1-Benzenesulfonyl-4-(3-methoxy-propyl)-piperidine-4-carboxylic acid (4-isopropoxy-phenyl)-amide]	920 nM
O=C(Nc1ccc(OC(F)(F)F)cc1)C1CCN(S(=O)(=O)N2CCOCC2)CC1 [Example 37, 1-(Morpholine-4-sulfonyl)-piperidine-4-carboxylic acid (4-trifluoromethoxy-phenyl)-amide]	600 nM
Cc1ccc(S(=O)(=O)N2CCC(C(=O)NCC3(c4ccc(Cl)cc4)CC3)CC2)cc1 [Example 64, 1-(Toluene-4-sulfonyl)-piperidine-4-carboxylic acid [1-(4-chloro-phenyl)-cyclopropylmethyl]-amide]	1490 nM
COC(COc1ccc(NC(=O)C2CCN(S(=O)(=O)c3ccc(C)cc3)CC2)cc1)C(F)(F)F (racemic) [Example 53, (rac)-1-(Toluene-4-sulfonyl)-piperidine-4-carboxylic acid [4-(3,3,3-trifluoro-2-methoxy-propoxy)-phenyl]-amide]	660 nM
CC(C)c1ccc(NC(=O)C2CCN(S(=O)(=O)c3ccccc3)CC2)cn1 [Example 2, 1-Benzenesulfonyl-piperidine-4-carboxylic acid (6-isopropyl-pyridin-3-yl)-amide]	240 nM

Second part, the compound after the results:

IC50	Compound
70 nM	CC(Oc1ccc(NC(=O)C2CCN(S(=O)(=O)c3ccccc3Cl)CC2)cc1)C(F)(F)F (racemic) [Example 40, (rac)-1-(2-Chloro-benzenesulfonyl)-piperidine-4-carboxylic acid [4-(2,2,2-trifluoro-1-methyl-ethoxy)-phenyl]-amide]
80 nM	Cc1ccc(S(=O)(=O)N2CCC(C(=O)Nc3ccc(OC(F)(F)F)cc3)CC2)cc1 [Example 1, 1-(Toluene-4-sulfonyl)-piperidine-4-carboxylic acid (4-trifluoromethoxy-phenyl)-amide]
1140 nM	CC(Oc1ccc(NC(=O)C2(CO)CCN(S(=O)(=O)c3ccccc3Cl)CC2)cc1)C(F)(F)F (racemic) [Example 24, 1-(2-Chloro-benzenesulfonyl)-4-hydroxymethyl-piperidine-4-carboxylic acid [4-(2,2,2-trifluoro-1-methyl-ethoxy)-phenyl]-amide]
280 nM	COc1ccc(S(=O)(=O)N2CCC(F)(C(=O)Nc3ccc(OC(F)(F)F)cc3)CC2)cc1 [Example 29, 4-Fluoro-1-(4-methoxy-benzenesulfonyl)-piperidine-4-carboxylic acid (4-trifluoromethoxy-phenyl)-amide]
540 nM	CC1(C(=O)Nc2ccc(OC(F)(F)F)cc2)CCN(S(=O)(=O)c2ccccc2Cl)CC1 [Example 58, 1-(2-Chloro-benzenesulfonyl)-4-methyl-piperidine-4-carboxylic acid (4-trifluoromethoxy-phenyl)-amide]
80 nM	CN(C(=O)[C@H]1CCN(S(=O)(=O)c2ccccc2Cl)[C@H](CO)C1)c1ccc(OC(F)(F)F)cc1 (racemic) [Example 11, (2S,4S)-1-(2-Chloro-benzenesulfonyl)-2-hydroxymethyl-piperidine-4-carboxylic acid methyl-(4-trifluoromethoxy-phenyl)-amide and (2R,4R)-1-(2-Chloro-benzenesulfonyl)-2-hydroxymethyl-piperidine-4-carboxylic acid methyl-(4-trifluoromethoxy-phenyl)-amide]
